Reference: patent US12599585B2, “Use of [(1R)-1-(2-chlorophenyl)-2-(tetrazol-2-yl)ethyl] carbamate in combination therapy” (priority 2018, dated 2026)

Key:
[1] = population pharmacokinetic (PopPK) modeling and simulation of the cenobamate effect on concomitant AED concentrations in subjects with partial onset seizures; format: in vivo, human; conditions: cenobamate dose 100-400 mg/day
Protocol: This study was carried out to make an assessment of the extent to which the adjunctive treatment with cenobamate may affect the recommended dosing of other AEDs. Population pharmacokinetics (PopPK) models describing how cenobamate exposure affects that of other commonly used AEDs (i.e., carbamazepine, lamotrigine, levetiracetam, oxcarbazepine, phenytoin and valproic acid) when given as adjunct therapy.
Therapeutically effective amount for AEDs are different depending on the condition of subjects participated in the study. For carbamazepine, therapeutically effective amount was about 800 mg/day to about 1,200 mg/day for adults and children over 12 years of age. For lamotrigine, therapeutically effective amount was about 100 mg/day to about 500 mg/day, preferably about 100 mg/day to 200 mg/day, for adults and children over 12 years of age. For levetiracetam, therapeutically effective amount was about 3,000 mg/day for adults and children over 12 years of age. For phenytoin, therapeutically effective amount was about 300 mg/day to about 600 mg/day for adults. For valproic acid, therapeutically effective amount was about 60 mg/kg/day for adults.
PopPk datasets were constructed from clinical databases for Cenobamate Study 1, Cenobamate Study 2 and Cenobamate Study 3. The dosing, exposure, covariate and AED concentration data were merged by subject, date, and time; formatted for PopPK analysis and saved in ASCII format using R software (Version 3.2.2, Comprehensive R Network, cran.r-project.org). All data programs were documented and archived in a locked on-line repository in order to maintain an audit trail. A quality control (QC) check of the data management procedure was conducted according to qPharmetra standard operating procedures (SOPs).
Results from Cenobamate Study 1, Cenobamate Study 2 and Cenobamate Study 3 were included in the analyses. Each study is described in more detail in the subsequent sections.
This is a multicenter, double-blind, randomized, adjunctive placebo-controlled trial with an open-label extension phase to evaluate the efficacy and safety of cenobamate in subjects with treatment resistant partial onset seizures. Subjects with partial onset seizures not fully controlled despite their treatment with 1 to 3 concomitant AEDs were included in this study. The study included an 8 week baseline period to assess seizure frequency. Only subjects who experienced at least 3 seizures/month during the baseline period with no 21-day seizure-free period were randomized in a 1:1 ratio to add-on placebo or cenobamate administered in an oral formulation once daily in the morning. Subjects then entered a 12-week double-blind treatment period, consisting of a 6-week titration phase followed by a 6-week maintenance phase. In maintenance phase, the dose was 200 mg/day. Blood samples were drawn at the baseline, predose at the start of the titration phase, and on days 15, 29, 43, 57 and 85 after the first dose during the double-blinded treatment period. These samples were analyzed for lamotrigine, levetiracetam, oxcarbazepine, carbamazepine, and valproic acid.
This is a multicenter, double-blind, randomized, placebo-controlled dose-response study, with an 8-week prospective baseline and an 18-week double-blind treatment period. Subjects must have had least 8 partial seizures including only simple partial seizures with motor component, complex partial seizures, or secondarily generalized seizures without a seizure-free interval of greater than 25 days any time during the 8-week baseline despite their treatment with 1 to 3 AEDs. Subjects must have had at least 3 of these partial seizures during each of the two consecutive 4-week periods in the baseline period to be randomized to 100, 200 or 400 mg/day cenobamate or placebo (1:1:1:1 ratio) administered as a tablet formulation once daily in the morning. Subjects first entered a 6-week titration followed by a 12-week maintenance phase. […]

[2] = open-label multiple dose PK drug-interaction studies of cenobamate co-administered with AEDs; format: in vivo, human
Protocol: This study was carried out to assess the effect of cenobamate on the disposition of four AEDs (divalproex sodium, phenobarbital, phenytoin and carbamazepine) and the effect of four AEDs on the disposition of cenobamate. The details are described below.
Five open-label, multiple dose, multiple period, 1 sequence, PK drug-interaction studies were conducted examining co-administration of cenobamate and each of the above-mentioned AEDs. Specifically, five studies were conducted, as follows:
This is an open-label, multiple-dose, 1 sequence, 3 period pharmacokinetic drug interaction study between cenobamate and divalproex in normal volunteer subjects. Sixteen subjects were enrolled. All subjects were scheduled to undergo 3 treatment periods as a 1 sequence design: • Period 1 (Days 1 to 5): Single oral daily administration of 1000 mg divalproex (Treatment A). • Period 2 (Days 6 to 19): Co-administration of single oral daily administration of 1000 mg divalproex and 150 mg cenobamate (Treatments A and B). • Period 3 (Days 20 to 25): Single oral daily administration of 150 mg cenobamate (Treatment B). (Number of Subjects Planned: 16 Enrolled: 16 Analyzed: 16) Study 2—Phenobarbital
This is an open-label, 1-arm, 2-treatment study. Sixteen (16) healthy, adult, non-tobacco using, male and female subjects were enrolled. Screening of subjects occurred within 28 days prior to the first dose. A total of 16 subjects were enrolled in the study, and 14 subjects completed the study. The PK dataset therefore included 16 subjects for phenobarbital alone and 14 subjects for the combination treatment. There were 16 subjects included in the safety analyses.
Treatment A subjects received 30 mg phenobarbital TID on Days 1 to 7, followed by 90 mg phenobarbital QD in the morning on Days 8 to 21. All study drugs were administered orally with approximately 240 mL of water.
Treatment B subjects received 90 mg phenobarbital QD in the morning from Days 22 to 56 co-administered with 50 mg cenobamate QD on Days 22 to 28, 100 mg cenobamate QD on Days 29 to 35, 150 mg cenobamate QD on Days 36 to 42, and 200 mg cenobamate QD on Days 43 to 56. All study drugs were administered orally with approximately 240 mL of water. The study duration was approximately 13 weeks from screening to end-of-study procedures. There was approximately 17 weeks from screening to attempted follow-up phone call. There was no washout. […]
Blood samples were obtained prior to and following dosing at selected times through 24 hours postdose on selected days (Days 14, 28, and 70). Plasma samples were analyzed for phenytoin and cenobamate concentrations using validated analytical methods. Appropriate PK parameters were calculated for each treatment using non-compartmental methods. […]

[3] = combination therapy with cenobamate vs AED alone (FIG. 2)
[4] = combination therapy with phenytoin vs cenobamate alone (FIG. 3)

Question: Which “Effect on AED Concentration (AUC): Reduction by” value (from here on “Effect … Reduction by”) [1] does the source give for CC[C@@H](C(N)=O)N1CCCC1=O [Levetiracetam, levetiracetam] here?
Answer: Reduction by 4-13%

Question: With NC(=O)N1c2ccccc2C=Cc2ccccc21 [Carbamazepine, carbamazepine] as the compound, how does the “Effect … Reduction by” value [1] read?
Answer: Reduction by 11-34%

Question: For O=C1NC(=O)C(c2ccccc2)(c2ccccc2)N1 [Phenytoin, phenytoin], which “Effect on AED Concentration (AUC): Increase by” value [1] is on record?
Answer: Increase by 10-60%

Question: Which “Effect … Reduction by” value [1] does the source give for CCCC(CCC)C(=O)O [Valproic acid, valproic acid] here?
Answer: Reduction by 5-19%

Question: Which “plasma AUC of the AED” value [2, 3] does the source give for CCC1(c2ccccc2)C(=O)NC(=O)NC1=O [phenobarbital] here?
Answer: increased

Question: What about the “plasma Cmax of the AED” value [2, 3] of the same compound?
Answer: increased

Question: With NC(=O)O[C@@H](Cn1ncnn1)c1ccccc1Cl [cenobamate, [(1R)-1-(2-chlorophenyl)-2-(tetrazol-2-yl)ethyl] carbamate] as the compound, how does the “plasma AUC for cenobamate” value [2, 4] read?
Answer: decreased

Question: And the “plasma Cmax for cenobamate” value [2, 4]?
Answer: decreased

Question: Which “Effect on AED Concentration (AUC): Increase by” value [1] does the source give for NC(=O)N1c2ccccc2CC(=O)c2ccccc21 [Oxcarbazepine, oxcarbazepine] here?
Answer: Increased by 10%

Question: With Nc1nnc(-c2cccc(Cl)c2Cl)c(N)n1 [Lamotrigine, lamotrigine] as the compound, how does the “Effect … Reduction by” value [1] read?
Answer: Reduction by 21-52%
